One block for each compound: values may come before it. Where no end group is shown, it is not given here.
Key:
RINm cells = assay: Insulin secretion in RINm cells; format: cell-based; details: peptides 0-5 nM, mimetibodies 5 or 50 nM, ELISA
Experimental: GLP-1 MMB causes insulin secretion in RINm cells. To test the effect of GLP-1 MMB in insulin secretion, RINm cells were treated with increasing concentrations of GLP-1 (7-36) peptide (0-5 nM), exendin-4 peptide (0-5 nM), or various GLP-1 mimetibodies (5 or 50 nM) and the amount of insulin secreted was measured via ELISA. All GLP-1 MMBs tested had activities in stimulating insulin secretion in RINm cells (FIG. 6).

db/db mice = assay: Blood glucose after intravenous dosing in db/db mice; format: in vivo; details: 0.5-4 hours post-dosing
Experimental: Blood glucose was monitored 0.5, 1, 2, 3, and 4 hours post-dosing.

GLP-1 receptor [1] = assay: Food intake in GLP-1R−/− and wild type mice; format: in vivo; details: GLP-1R−/− mice, single iv, GLP-1 MMB 1 mg/kg, exendin-4 0.07 mg/kg
From the text: (§1) Materials/Methods: Animals: Male GLP-1R−/− and age matched wild type mice were randomized into three treatment groups (n=5) based on body weight and fasting blood glucose.

GLP-1 receptor [2] = target: T1, GLP-1 receptor (Mus musculus, UniProt O35659); assay: Food intake in GLP-1R−/− and wild type mice; format: in vivo; details: wild type mice, single iv, GLP-1 MMB 1 mg/kg, exendin-4 0.07 mg/kg
T1 construct: Male GLP-1R−/− and age matched wild type mice; from tissue; host or cells: whole animal (wild type mice; GLP-1R-/- mice as receptor-free control)
T1 sequence (O35659 22-463): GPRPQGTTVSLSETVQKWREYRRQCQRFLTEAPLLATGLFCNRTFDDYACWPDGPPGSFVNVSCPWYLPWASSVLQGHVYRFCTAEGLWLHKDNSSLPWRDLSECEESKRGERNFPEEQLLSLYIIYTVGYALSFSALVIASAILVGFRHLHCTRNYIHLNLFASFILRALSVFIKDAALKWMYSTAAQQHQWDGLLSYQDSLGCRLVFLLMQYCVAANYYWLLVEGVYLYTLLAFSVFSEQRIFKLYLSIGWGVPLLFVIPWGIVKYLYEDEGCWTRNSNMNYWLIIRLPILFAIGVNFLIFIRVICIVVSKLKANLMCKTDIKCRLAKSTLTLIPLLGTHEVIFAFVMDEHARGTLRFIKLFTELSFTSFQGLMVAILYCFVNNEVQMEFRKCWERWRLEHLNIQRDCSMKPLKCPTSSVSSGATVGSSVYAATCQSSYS
From the text: as §1

GLP-1 receptor [3] = assay: Gastric emptying in GLP-1R−/− and wild type mice; format: in vivo; details: GLP-1R−/− mice, single iv, GLP-1 MMB 1 mg/kg, exendin-4 0.07 mg/kg
Experimental: as §1
(§2) Gastric Emptying: Mice were fasted overnight. The next morning mice were re-fed for 1 h, food intake was recorded and the mice were deprived of food for the rest of the study. Mice were dosed intravenously as discussed above. Two hours post-dosing mice were euthenized.
(§3) The stomach was exposed by laparotomy, ligated at both the pylorus and cardia and removed.
(§4) The stomach content wet weight was measured. Equation 1 was used to calculate the percent of food remaining in the stomach. (Stomach Content Wet Weight (g)/Food Intake (g))*100 Equation (1)

GLP-1 receptor [4] = target: T1, GLP-1 receptor; assay: Gastric emptying in GLP-1R−/− and wild type mice; format: in vivo; details: wild type mice, single iv, GLP-1 MMB 1 mg/kg, exendin-4 0.07 mg/kg
Experimental: as §1, §2, §3, §4

GLP-1 receptor [5] = target: T1, GLP-1 receptor; assay: Glucose tolerance test (ipGTT) in GLP-1R−/− and wild type mice; format: in vivo; details: wild type mice, single iv, GLP-1 MMB 1 mg/kg, exendin-4 0.07 mg/kg
Experimental: as §1
Glucose tolerance test (ipGTT): Mice were fasted overnight and dosed intravenously as discussed above. Fasting glucose was measured via tail snips using a hand-held glucometer (LifeScan). At t=0 min, mice were dosed i.p. with D-glucose (1.0 mg/g, Sigma) and blood glucose was measured after 15, 30, 60, 90 and 120 min using tail vein blood

normal dogs = assay: Gastric emptying in normal dogs; format: in vivo, beagle dogs; details: relative to vehicle
Experimental: A gastric cannula was surgically implanted into female beagle dogs (10-15 kg) under general anesthesia and allowed to recover for at least 2 weeks. Dogs were fasted for 24 hours after which water was freely available. The gastric cannula was opened and gastric juice and food remnants were removed with 40-50 ml of lukewarm water. Groups of six dogs were dosed subcutaneously with lidamidine, an alpha2 agonist (0.63 mg/kg), 60 minutes before the meal, a positive control for delay of gastric emptying. […] Five minutes before the meal, the gastric cannula was opened to determine the amount of fluid present in stomach for baseline value and fluid was promptly reintroduced. Then a test meal consisting of 250 ml of a glucose solution (5 g/1) was administered via the cannula and allowed to remain in the stomach for 30 minutes. Gastric contents were drained from the stomach to measure total volume after 30 minutes. […] Glucose concentrations were evaluated for collected samples and used to determine the absolute amount of glucose remaining in the stomach at each time point. The percentage of glucose retained in the stomach was determined from the starting value and the concentration of glucose at each time point and plotted as a function of time. The time at which 50% of the gastric contents were retained was determined by fitting of the curves to a single exponential.

Compound: GLP-1 (7-36) peptide: wide-type GLP-1 (7-36) peptide (HAEGTFTSDVSSYLEGQAAKEFIAWLVKGR; ends and bridges not checked; UniProt P01275 98-127, looked up)
insulin secretion in RINm cells (RINm cells): stimulates insulin release

Compound: CC[C@H](C)[C@H](NC(=O)[C@H](Cc1ccccc1)NC(=O)[C@H](CCC(=O)O)NC(=O)[C@H](CCCCN)NC(=O)[C@H](C)NC(=O)[C@H](C)NC(=O)[C@H](CCC(N)=O)NC(=O)CNC(=O)[C@H](CCC(=O)O)NC(=O)[C@H](CC(C)C)NC(=O)[C@H](Cc1ccc(O)cc1)NC(=O)[C@H](CO)NC(=O)[C@H](CO)NC(=O)[C@@H](NC(=O)[C@H](CC(=O)O)NC(=O)[C@H](CO)NC(=O)[C@@H](NC(=O)[C@H](Cc1ccccc1)NC(=O)[C@@H](NC(=O)CNC(=O)[C@H](CCC(=O)O)NC(=O)[C@H](C)NC(=O)[C@@H](N)Cc1c[nH]cn1)[C@@H](C)O)[C@@H](C)O)C(C)C)C(=O)N[C@@H](C)C(=O)N[C@@H](Cc1c[nH]c2ccccc12)C(=O)N[C@@H](CC(C)C)C(=O)N[C@H](C(=O)N[C@@H](CCCCN)C(=O)NCC(=O)N[C@@H](CCCNC(=N)N)C(N)=O)C(C)C [GLP-1 peptide]
blood glucose (db/db mice): lowered blood glucose at 30 minutes

24 hour cumulative food intake compared to CNTO1996 (GLP-1 receptor [2]): statistically significant reduction | stomach content (percent of food remaining) 2 h after dosing compared to CNTO1996 (GLP-1 receptor [4]): statistically significant increase
Compound: exendin-4 [reference compound]
food intake (GLP-1 receptor [1]): no effect | gastric emptying (GLP-1 receptor [3]): no effect | AUC of ipGTT (GLP-1 receptor [5]): statistically significant reduction | insulin secretion in RINm cells (RINm cells): stimulates insulin release

Compound: CN=C(N)NC(=O)Nc1c(C)cccc1C [lidamidine]
gastric emptying (normal dogs): significant delay in gastric emptying

Source: US8071103B2, “Pharmaceutical composition comprising a human GLP-1 mimetibody” (Centocor, Inc., priority 2006, dated 2011)
